For this experiment, the system named is L1210 leukemia ip in BDF1 mice, survival T/C. Description: NCI In Vivo Anticancer Drug Screen. Data for tumor model L1210 Leukemia (intraperitoneal) in B6D2F1 (BDF1) mice. To be noted: endpoint: mean survival time, higher = longer survival. A digest of the protocol: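 Read-out is survival time, reported as the treated-group measurement over the vehicle-control measurement.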

Where [1] appears, read: dose: 200.0 mg/kg/injection, schedule: Q04DX003 (ip), vehicle: Klucel (hydroxypropylcellulose) (HPC).
Where [2] appears, read: dose: 100.0 mg/kg/injection, schedule: Q04DX002 (ip), vehicle: saline with Tween-80.
The mark [3] stands for this setting: dose: 200.0 mg/kg/injection, schedule: Q04DX002 (ip), vehicle: saline with Tween-80.
Where [4] appears, read: dose: 400.0 mg/kg/injection, schedule: Q04DX002 (ip), vehicle: saline with Tween-80.
The mark [5] stands for this setting: dose: 100.0 mg/kg/injection, schedule: Q04DX003 (ip), vehicle: saline with Tween-80.
Where [6] appears, read: dose: 200.0 mg/kg/injection, schedule: Q04DX003 (ip), vehicle: saline with Tween-80.
[7] abbreviates: dose: 400.0 mg/kg/injection, schedule: Q04DX003 (ip), vehicle: saline with Tween-80.
[8] abbreviates: dose: 100.0 mg/kg/injection, schedule: Q01DX001 (ip), vehicle: carboxymethylcellulose (CMC).
Where [9] appears, read: dose: 200.0 mg/kg/injection, schedule: Q01DX001 (ip), vehicle: carboxymethylcellulose (CMC).

Values joined by “and” are separate entries in the source; they are usually repeats but may differ in a detail not shown here. Equal entries are not always repeated. Inconclusive results and toxic doses are left out.

Take `Oc1cccc2cccnc12.[Al]`: the T/C by setting is: (dose: 10.0 mg/kg/injection, schedule: Q01DX Z (ip), vehicle: carboxymethylcellulose (CMC)) 93 % of control; (dose: 20.0 mg/kg/injection, schedule: Q01DX Z (ip), vehicle: carboxymethylcellulose (CMC)) 97 % of control; (dose: 40.0 mg/kg/injection, schedule: Q01DX Z (ip), vehicle: carboxymethylcellulose (CMC)) 93 % of control; (dose: 50.0 mg/kg/injection, schedule: Q01DX009 (ip), vehicle: Klucel (hydroxypropylcellulose) (HPC)) 94 % of control; (dose: 50.0 mg/kg/injection, schedule: Q04DX003 (ip), vehicle: Klucel (hydroxypropylcellulose) (HPC)) 101 % of control; (dose: 100.0 mg/kg/injection, schedule: Q01DX009 (ip), vehicle: Klucel (hydroxypropylcellulose) (HPC)) 100 % of control. For the same compound, the T/C is, setting by setting: (dose: 100.0 mg/kg/injection, schedule: Q04DX003 (ip), vehicle: Klucel (hydroxypropylcellulose) (HPC)) 102 % of control; (dose: 200.0 mg/kg/injection, schedule: Q01DX009 (ip), vehicle: Klucel (hydroxypropylcellulose) (HPC)) 96 % of control; under setting [1], 101 % of control.
On to `N#CCc1ccccc1N(C(=O)CCl)C(=O)CCl`, for which the T/C (dose: 100.0 mg/kg/injection, schedule: Q01DX001 (ip), vehicle: saline sonified) was 98 % of control; the T/C (dose: 200.0 mg/kg/injection, schedule: Q01DX001 (ip), vehicle: saline sonified) is 103 % of control; the T/C (dose: 400.0 mg/kg/injection, schedule: Q01DX001 (ip), vehicle: saline sonified) is 103 % of control.
On to `O=C(O)CCCC1OCCO1`, for which the T/C is, setting by setting: (dose: 100.0 mg/kg/injection, schedule: Q01DX001 (ip), vehicle: saline with Tween-80) 98 % of control; (dose: 200.0 mg/kg/injection, schedule: Q01DX001 (ip), vehicle: saline with Tween-80) 95 % of control; (dose: 400.0 mg/kg/injection, schedule: Q01DX001 (ip), vehicle: saline with Tween-80) 101 % of control.
In the case of `CSc1nc(/N=N/Nc2nc(SC)nn2C)n(C)n1`, the T/C reads like this: under setting [2], 93 % of control; under setting [3], 93 % of control; under setting [4], 97 % of control.
As for `CCc1cccc(OC/C=C(\C)CCC2OC2(C)CC)c1` (stereo not given), the T/C under setting [2] is 100 % of control, the T/C under setting [3] is 100 % of control and the T/C under setting [4] was 94 % of control.
In the case of `O=[N+]([O-])c1ccc(O)c(C2CCCCC2)c1`, the T/C is, setting by setting: (dose: 100.0 mg/kg/injection, schedule: Q01DX009 (ip), vehicle: gum acacia) 92 % of control; (dose: 200.0 mg/kg/injection, schedule: Q01DX009 (ip), vehicle: gum acacia) 87 % of control; (dose: 400.0 mg/kg/injection, schedule: Q01DX009 (ip), vehicle: gum acacia) 86 % of control.
`CCCCn1c(=O)cc(C)c2ccccc21`: the T/C reads like this: (dose: 100.0 mg/kg/injection, schedule: Q01DX001 (ip), vehicle: other) 95 % of control; (dose: 200.0 mg/kg/injection, schedule: Q01DX001 (ip), vehicle: other) 92 % of control; (dose: 400.0 mg/kg/injection, schedule: Q01DX001 (ip), vehicle: other) 94 % of control.
Take `Nc1cccc2c1C(=O)c1cccc(Cl)c1C2=O`: the T/C by setting is: under setting [5], 94 % of control; under setting [6], 101 % of control; under setting [7], 94 % of control.
In the case of `CCN(CC)c1ccc(N=Nc2ccccc2)cc1`, the T/C runs as follows: (dose: 50.0 mg/kg/injection, schedule: Q01DX001 (ip), vehicle: carboxymethylcellulose (CMC)) 93 % of control; under setting [8], 86 % of control; under setting [9], 96 % of control; (dose: 400.0 mg/kg/injection, schedule: Q01DX001 (ip), vehicle: carboxymethylcellulose (CMC)) 98 % of control.
Regarding `CCCN1CC(C(=O)OCC)C(=O)C1=O` (stereo not given), the T/C (dose: 50.0 mg/kg/injection, schedule: Q01DX001 (ip), vehicle: saline) was 108 % of control; the T/C (dose: 100.0 mg/kg/injection, schedule: Q01DX001 (ip), vehicle: saline) is 100 % of control; the T/C (dose: 200.0 mg/kg/injection, schedule: Q01DX001 (ip), vehicle: saline) was 96 % of control; the T/C (dose: 400.0 mg/kg/injection, schedule: Q01DX001 (ip), vehicle: saline) is 102 % of control.
Take `CCOc1ccc(/C=N/NC(=O)c2ccccc2NC(=O)C2CC2)cc1OC`: the T/C runs as follows: (dose: 100.0 mg/kg/injection, schedule: Q01DX009 (ip), vehicle: saline with Tween-80) 100 % of control; under setting [5], 92 % of control; (dose: 200.0 mg/kg/injection, schedule: Q01DX009 (ip), vehicle: saline with Tween-80) 92 % of control; under setting [6], 95 % of control; (dose: 400.0 mg/kg/injection, schedule: Q01DX009 (ip), vehicle: saline with Tween-80) 94 % of control; under setting [7], 90 % of control.
As to `N#CCCS(=O)(=O)CCc1ccccc1`, the T/C (dose: 75.0 mg/kg/injection, schedule: Q01DX009 (ip), vehicle: Klucel (hydroxypropylcellulose) (HPC)) is 96 % of control; the T/C (dose: 150.0 mg/kg/injection, schedule: Q01DX009 (ip), vehicle: Klucel (hydroxypropylcellulose) (HPC)) was 96 % of control; the T/C (dose: 300.0 mg/kg/injection, schedule: Q01DX009 (ip), vehicle: Klucel (hydroxypropylcellulose) (HPC)) was 105 % of control.
Regarding `CCNC(=O)c1ccc(NC(=O)Nc2ccc(C3=NCCN3)cc2)cc1NC(=O)Nc1ccc(C2=NCCN2)cc1`, the T/C by setting is: (dose: 37.5 mg/kg/injection, schedule: Q01DX015 (ip), vehicle: water) 198 % of control; (dose: 46.0 mg/kg/injection, schedule: Q01DX001 (ip), vehicle: water) 123 % of control; (dose: 50.0 mg/kg/injection, schedule: Q01DX015 (ip), vehicle: water) 163 % of control; (dose: 62.5 mg/kg/injection, schedule: Q01DX Z (ip), vehicle: water) 116 % of control; (dose: 93.0 mg/kg/injection, schedule: Q01DX001 (ip), vehicle: water) 166 % of control and 189 % of control; (dose: 140.0 mg/kg/injection, schedule: Q01DX001 (ip), vehicle: water) 171 % of control and 176 % of control and 193 % of control.
As for `S=C(NP(=S)(NC(=S)OCCN1CC1)NC(=S)OCCN1CC1)OCCN1CC1`, the T/C reads like this: under setting [8], 93 % of control; under setting [9], 96 % of control.
For `Nn1nnc(-c2ccccc2)c1-c1ccccc1`, the T/C is, setting by setting: under setting [8], 100 % of control; under setting [9], 100 % of control.
On to `CN(C)N=Nc1cn(C2OC(CO)C(O)C2O)c(=O)[nH]c1=O` (stereo not given), for which the T/C is 111 % of control (dose: 100.0 mg/kg/injection, schedule: Q01DX009 (ip), vehicle: saline) and 120 % of control (dose: 200.0 mg/kg/injection, schedule: Q01DX009 (ip), vehicle: saline).
Consider `CCCCCCCNC(=S)OCC`, for which the T/C reads like this: under setting [2], 100 % of control; under setting [3], 107 % of control; under setting [4], 107 % of control.
On to `Cc1cc(O)c([N+](=O)[O-])c(=O)o1` (tested in a mixture with another compound), for which the T/C runs as follows: (dose: 100.0 mg/kg/injection, schedule: Q04DX002 (ip), vehicle: Klucel (hydroxypropylcellulose) (HPC)) 108 % of control; (dose: 200.0 mg/kg/injection, schedule: Q04DX002 (ip), vehicle: Klucel (hydroxypropylcellulose) (HPC)) 97 % of control; (dose: 400.0 mg/kg/injection, schedule: Q04DX002 (ip), vehicle: Klucel (hydroxypropylcellulose) (HPC)) 87 % of control.
For the compound `N#CC(C#N)=NNc1cccc(Cl)c1`, the T/C under setting [1] was 96 % of control and the T/C (dose: 400.0 mg/kg/injection, schedule: Q04DX003 (ip), vehicle: Klucel (hydroxypropylcellulose) (HPC)) was 101 % of control.
`CC/C=N\NC`: the T/C reads like this: (dose: 5.0 mg/kg/injection, schedule: Q01DX001 (ip), vehicle: saline) 111 % of control; (dose: 6.6 mg/kg/injection, schedule: Q01DX015 (ip), vehicle: saline) 94 % of control; (dose: 10.0 mg/kg/injection, schedule: Q01DX001 (ip), vehicle: saline) 103 % of control; (dose: 10.0 mg/kg/injection, schedule: Q01DX015 (ip), vehicle: saline) 94 % of control; (dose: 15.0 mg/kg/injection, schedule: Q01DX015 (ip), vehicle: saline) 100 % of control; (dose: 20.0 mg/kg/injection, schedule: Q01DX001 (ip), vehicle: saline) 112 % of control. For the same compound, the T/C is, setting by setting: (dose: 22.5 mg/kg/injection, schedule: Q01DX015 (ip), vehicle: saline) 95 % of control; (dose: 40.0 mg/kg/injection, schedule: Q01DX001 (ip), vehicle: saline) 120 % of control.

(Values after PubChem BioAssay AID248 (DTP/NCI, 2004).)
